We go through seven compounds from patent US10829520B2, “Beta-hairpin peptidomimetics” (POLYPHOR AG, priority 2015, dated 2020).

Type in all cases: cell-based
Data set [1] concerns Acinetobacter baumannii 872842. To be noted: 872842.
For data set [2], the system named is Acinetobacter baumannii DSM 30008. Conditions: DSM 30008. In short, it runs like this:
(§1)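 CLSI broth microdilution in cation-adjusted Mueller-Hinton II broth with 0.002% Polysorbate 80, inoculum appr. 10^6 CFU/mL, peptides in serial two-fold dilutions. MIC (μg/mL) is the lowest concentration with no visible growth after 18-20 hours at 35° C.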

The test system of a further data set is Escherichia coli 926415. To be noted: 926415.
The subject of data set [3] is Escherichia coli ATCC 25922. Conditions: ATCC 25922. In short, it runs like this: as §1
Data set [4] deals with Klebsiella pneumoniae 968733. To be noted: 968733.
For data set [5], the system named is Klebsiella pneumoniae SSI #3010. To be noted: SSI #3010. In short, it runs like this: as §1
The subject of data set [6] is Pseudomonas aeruginosa ATCC 27853. To be noted: ATCC 27853. In short, it runs like this: as §1
Data set [7] deals with human red blood cells (hRBC). As to the kind of experiment: Hemolysis of human red blood cells. To be noted: red cells of human, 1 h, 100 μg/mL. In short, it runs like this: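 Washed fresh human erythrocytes (20% v/v, ~0.9×10^9 cells/mL final) were incubated with peptides at 100 μg/mL for 1 h at 37 °C with shaking. Supernatant OD540 measured; hemolysis expressed as % of 2.5% Triton X-100 lysis, with PBS/0.001% acetic acid as 0%.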

Where a SMILES comes first, the peptide text is derived from it. Bridges are numbered along the chain shown (N, C = ends). [ ]: non-standard residue; d: D form. dDab = NCC[C@@H](N)C(=O)O; Dab = NCC[C@H](N)C(=O)O; Dap = NC[C@H](N)C(=O)O; Sar = CNCC(=O)O

Turning to `CC(C)C[C@@H]1NC(=O)[C@H](CO)NC(=O)[C@H](Cc2ccc(O)cc2)NC(=O)[C@@H]2CCCN2C(=O)[C@H]2CCCN2C(=O)[C@H](Cc2ccc(O)cc2)NC(=O)[C@H](C)NC(=O)[C@H](C(C)C)NC(=O)[C@@H](NC(=O)[C@@H](N)Cc2c[nH]c3ccccc23)CSSC[C@@H](C(=O)NCC(=O)N[C@@H](CCN)C(=O)N[C@H](C(=O)N[C@@H](CCN)C(=O)N[C@H]2CCNC(=O)[C@H]([C@@H](C)O)NC(=O)[C@H](CCN)NC(=O)[C@H](CCN)NC(=O)[C@H](CC(C)C)NC(=O)[C@@H](CC(C)C)NC(=O)[C@H](CCN)NC2=O)[C@@H](C)O)NC1=O` [Ex. 153] (H-WCVAY[dP]PYSLCG[Dab]T[Dab][Dab][Dab][dL]L[Dab][Dab]T; disulfide 2-11; lactam 16-C), the “Acinetobacter baumannii 872842 MIC” value in data set [1] worked out at 0.03125 µg/mL. In addition, in data set [2], the “Acinetobacter baumannii DSM 30008 MIC” value was determined as 0.125 µg/mL. Besides, the “Escherichia coli 926415 MIC” value in the data set on Escherichia coli 926415 was 0.125 µg/mL. The “Escherichia coli ATCC 25922 MIC” value in data set [3] was found to be 0.0625 µg/mL. For the same compound, the “Klebsiella pneumoniae 968733 MIC” value in data set [4] was determined as 0.0625 µg/mL. Also, the “Klebsiella pneumoniae SSI #3010 MIC” value in data set [5] came to 0.0625 µg/mL. For the same compound, in data set [6], the “Pseudomonas aeruginosa ATCC 27853 MIC” value turned out to be 0.5 µg/mL. In addition, the “Hemolysis at 100 μg/mL” value in data set [7] is less than 1%.

As for `CC(C)C[C@@H]1NC(=O)[C@H](CO)NC(=O)[C@H](CC(C)C)NC(=O)[C@@H]2CCCN2C(=O)[C@H]2CCCN2C(=O)[C@H]([C@@H](C)O)NC(=O)[C@H](C)NC(=O)[C@H](C(C)C)NC(=O)[C@@H](NC(=O)[C@@H](N)CC(C)C)CSSC[C@@H](C(=O)NCC(=O)N[C@@H](CCN)C(=O)N[C@H](C(=O)N[C@@H](CCN)C(=O)N[C@H]2CCNC(=O)[C@H]([C@@H](C)O)NC(=O)[C@H](CCN)NC(=O)[C@H](CCN)NC(=O)[C@H](CC(C)C)NC(=O)[C@@H](CC(C)C)NC(=O)[C@H](CCN)NC2=O)[C@@H](C)O)NC1=O` [Ex. 154] (H-LCVAT[dP]PLSLCG[Dab]T[Dab][Dab][Dab][dL]L[Dab][Dab]T; disulfide 2-11; lactam 16-C), the “Acinetobacter baumannii 872842 MIC” value in data set [1] stood at 0.03125 µg/mL. Moreover, the “Acinetobacter baumannii DSM 30008 MIC” value in data set [2] was 0.0625 µg/mL. The “Escherichia coli 926415 MIC” value in the data set with Escherichia coli 926415 stood at 0.125 µg/mL. Besides, the “Escherichia coli ATCC 25922 MIC” value in data set [3] was 0.0625 µg/mL. Further, in data set [4], the “Klebsiella pneumoniae 968733 MIC” value stood at 0.25 µg/mL. Further, the “Klebsiella pneumoniae SSI #3010 MIC” value in data set [5] is 0.0625 µg/mL. In addition, in data set [6], the “Pseudomonas aeruginosa ATCC 27853 MIC” value worked out at 1 µg/mL. Also, the “Hemolysis at 100 μg/mL” value in data set [7] was less than 1%.

Consider `CC(C)C[C@@H]1NC(=O)[C@H](CO)NC(=O)[C@H](Cc2ccc(O)cc2)NC(=O)[C@@H]2CCCN2C(=O)[C@H]2CCCN2C(=O)[C@H](C(C)C)NC(=O)[C@H](C)NC(=O)[C@H](C(C)C)NC(=O)[C@@H](NC(=O)[C@@H](N)C(C)C)CSSC[C@@H](C(=O)NCC(=O)N[C@@H](CCN)C(=O)N[C@H](C(=O)N[C@@H](CCN)C(=O)N[C@H]2CCNC(=O)[C@H]([C@@H](C)O)NC(=O)[C@H](CCN)NC(=O)[C@H](CCN)NC(=O)[C@H](CC(C)C)NC(=O)[C@@H](CC(C)C)NC(=O)[C@H](CCN)NC2=O)[C@@H](C)O)NC1=O` [Ex. 155] (H-VCVAV[dP]PYSLCG[Dab]T[Dab][Dab][Dab][dL]L[Dab][Dab]T; disulfide 2-11; lactam 16-C), for which the “Acinetobacter baumannii 872842 MIC” value in data set [1] stood at 0.0625 µg/mL. Moreover, the “Acinetobacter baumannii DSM 30008 MIC” value in data set [2] turned out to be 0.03125 µg/mL. Besides, the “Escherichia coli 926415 MIC” value with Escherichia coli 926415 came to 0.25 µg/mL. In addition, the “Escherichia coli ATCC 25922 MIC” value in data set [3] was determined as 0.0625 µg/mL. Further, in data set [4], the “Klebsiella pneumoniae 968733 MIC” value came out at 0.5 µg/mL. The “Klebsiella pneumoniae SSI #3010 MIC” value in data set [5] was 0.0625 µg/mL. Moreover, in data set [6], the “Pseudomonas aeruginosa ATCC 27853 MIC” value came to 1 µg/mL. Further, the “Hemolysis at 100 μg/mL” value in data set [7] is recorded as less than 1%.

Regarding `CC(C)C[C@@H]1NC(=O)[C@H](CO)NC(=O)[C@H](Cc2ccc(O)cc2)NC(=O)[C@@H]2CCCN2C(=O)[C@H]2CCCN2C(=O)[C@H](Cc2c[nH]cn2)NC(=O)[C@H](C)NC(=O)[C@H](C(C)C)NC(=O)[C@@H](NC(=O)[C@@H](N)CC(C)C)CSSC[C@@H](C(=O)NCC(=O)N[C@@H](CCN)C(=O)N[C@H](C(=O)N[C@@H](CCN)C(=O)N[C@H]2CCNC(=O)[C@H]([C@@H](C)O)NC(=O)[C@H](CCN)NC(=O)[C@H](CCN)NC(=O)[C@H](CC(C)C)NC(=O)[C@@H](CC(C)C)NC(=O)[C@H](CCN)NC2=O)[C@@H](C)O)NC1=O` [Ex. 156] (H-LCVAH[dP]PYSLCG[Dab]T[Dab][Dab][Dab][dL]L[Dab][Dab]T; disulfide 2-11; lactam 16-C), the “Acinetobacter baumannii 872842 MIC” value in data set [1] was 0.0625 µg/mL. The “Acinetobacter baumannii DSM 30008 MIC” value in data set [2] was determined as 0.125 µg/mL. The “Escherichia coli 926415 MIC” value in the data set with Escherichia coli 926415 stood at 1 µg/mL. Moreover, the “Escherichia coli ATCC 25922 MIC” value in data set [3] is 0.125 µg/mL. The “Klebsiella pneumoniae 968733 MIC” value in data set [4] came to 0.5 µg/mL. Besides, in data set [5], the “Klebsiella pneumoniae SSI #3010 MIC” value was 0.125 µg/mL. In addition, in data set [6], the “Pseudomonas aeruginosa ATCC 27853 MIC” value is 0.25 µg/mL. For the same compound, the “Hemolysis at 100 μg/mL” value in data set [7] was less than 1%.

For `CC(C)C[C@@H]1NC(=O)[C@@H](CC(C)C)NC(=O)[C@H](CCN)NC(=O)[C@@H](NC(=O)[C@H](CCN)NC(=O)[C@@H](NC(=O)[C@H](CCN)NC(=O)CNC(=O)[C@@H]2CSSC[C@H](NC(=O)[C@@H](N)CC(C)C)C(=O)N[C@@H](C(C)C)C(=O)N[C@@H](C)C(=O)N[C@@H](Cc3ccc(O)cc3)C(=O)N[C@H](CCN)C(=O)N3CCC[C@H]3C(=O)N[C@@H](CC(C)C)C(=O)N[C@@H](CO)C(=O)N[C@@H](Cc3ccc(O)cc3)C(=O)N2)[C@@H](C)O)CCNC(=O)[C@H]([C@@H](C)O)NC(=O)[C@H](CCN)NC(=O)[C@H](CCN)NC1=O` [Ex. 157] (H-LCVAY[dDab]PLSYCG[Dab]T[Dab][Dab][Dab][dL]L[Dab][Dab]T; disulfide 2-11; lactam 16-C), in data set [1], the “Acinetobacter baumannii 872842 MIC” value is 0.03125 µg/mL. In addition, the “Acinetobacter baumannii DSM 30008 MIC” value in data set [2] was determined as 0.0625 µg/mL. Further, the “Escherichia coli 926415 MIC” value in the data set with Escherichia coli 926415 was 0.125 µg/mL. The “Escherichia coli ATCC 25922 MIC” value in data set [3] came to 0.0625 µg/mL. In addition, the “Klebsiella pneumoniae 968733 MIC” value in data set [4] was determined as 1 µg/mL. In addition, the “Klebsiella pneumoniae SSI #3010 MIC” value in data set [5] was 0.125 µg/mL. In data set [6], the “Pseudomonas aeruginosa ATCC 27853 MIC” value is 0.5 µg/mL. Besides, the “Hemolysis at 100 μg/mL” value in data set [7] is less than 1%.

`CC(C)C[C@@H]1NC(=O)[C@H](CO)NC(=O)[C@H](Cc2ccc(O)cc2)NC(=O)[C@@H]2CCCN2C(=O)[C@H]2CCCN2C(=O)[C@H]([C@@H](C)O)NC(=O)[C@H](C)NC(=O)[C@H](Cc2ccc(O)cc2)NC(=O)[C@@H](NC(=O)[C@@H](N)CC(C)C)CSSC[C@@H](C(=O)NCC(=O)N[C@@H](CCN)C(=O)N[C@H](C(=O)N[C@@H](CCN)C(=O)N[C@H]2CCNC(=O)[C@H]([C@@H](C)O)NC(=O)[C@H](CCN)NC(=O)[C@H](CCN)NC(=O)[C@H](CC(C)C)NC(=O)[C@@H](CC(C)C)NC(=O)[C@H](CCN)NC2=O)[C@@H](C)O)NC1=O` [Ex. 158] (H-LCYAT[dP]PYSLCG[Dab]T[Dab][Dab][Dab][dL]L[Dab][Dab]T; disulfide 2-11; lactam 16-C): in data set [1], the “Acinetobacter baumannii 872842 MIC” value is 0.25 µg/mL. In addition, the “Acinetobacter baumannii DSM 30008 MIC” value in data set [2] turned out to be 0.25 µg/mL. Besides, the “Escherichia coli 926415 MIC” value in the data set with Escherichia coli 926415 stood at 4 µg/mL. For the same compound, the “Escherichia coli ATCC 25922 MIC” value in data set [3] came out at 0.125 µg/mL. In addition, the “Klebsiella pneumoniae 968733 MIC” value in data set [4] came out at 8 µg/mL. Besides, in data set [5], the “Klebsiella pneumoniae SSI #3010 MIC” value was determined as 0.125 µg/mL. Besides, the “Pseudomonas aeruginosa ATCC 27853 MIC” value in data set [6] is 0.5 µg/mL. Besides, the “Hemolysis at 100 μg/mL” value in data set [7] was less than 1%.

`CC(C)C[C@@H]1NC(=O)[C@@H](CC(C)C)NC(=O)[C@H](CCN)NC(=O)[C@@H](NC(=O)[C@H](CCN)NC(=O)[C@@H](NC(=O)[C@H](CCN)NC(=O)CN(C)C(=O)[C@@H]2CSSC[C@H](NC(=O)[C@@H](N)CC(C)C)C(=O)N[C@@H](C(C)C)C(=O)N[C@@H](CO)C(=O)N[C@@H](CO)C(=O)N3CCC[C@@H]3C(=O)N3CCC[C@H]3C(=O)N[C@@H](CC(C)C)C(=O)N[C@@H](CN)C(=O)N[C@@H](Cc3ccc(O)cc3)C(=O)N2)[C@@H](C)O)CCNC(=O)[C@H]([C@@H](C)O)NC(=O)[C@H](CCN)NC(=O)[C@H](CCN)NC1=O` [Ex. 159] (H-LCVSS[dP]PL[Dap]YC[Sar][Dab]T[Dab][Dab][Dab][dL]L[Dab][Dab]T; disulfide 2-11; lactam 16-C): in data set [1], the “Acinetobacter baumannii 872842 MIC” value stood at 0.25 µg/mL. The “Acinetobacter baumannii DSM 30008 MIC” value in data set [2] is 0.5 µg/mL. Also, the “Escherichia coli 926415 MIC” value in the data set on Escherichia coli 926415 was 2 µg/mL. Further, in data set [3], the “Escherichia coli ATCC 25922 MIC” value is 0.5 µg/mL. The “Klebsiella pneumoniae 968733 MIC” value in data set [4] amounted to 8 µg/mL. Also, the “Klebsiella pneumoniae SSI #3010 MIC” value in data set [5] came to 1 µg/mL. Besides, in data set [6], the “Pseudomonas aeruginosa ATCC 27853 MIC” value was determined as 2 µg/mL. Besides, the “Hemolysis at 100 μg/mL” value in data set [7] is less than 1%.
